Measurements from ChEMBL document CHEMBL4257084, “Novel functionalized 5-(phenoxymethyl)-1,3-dioxane analogs exhibiting cytochrome p450 inhibition and their method of use” (2016).

Biological target: T1, Cytochrome P450 11B1, mitochondrial (Homo sapiens, UniProt P15538)
T1 sequence (P15538 whole entry): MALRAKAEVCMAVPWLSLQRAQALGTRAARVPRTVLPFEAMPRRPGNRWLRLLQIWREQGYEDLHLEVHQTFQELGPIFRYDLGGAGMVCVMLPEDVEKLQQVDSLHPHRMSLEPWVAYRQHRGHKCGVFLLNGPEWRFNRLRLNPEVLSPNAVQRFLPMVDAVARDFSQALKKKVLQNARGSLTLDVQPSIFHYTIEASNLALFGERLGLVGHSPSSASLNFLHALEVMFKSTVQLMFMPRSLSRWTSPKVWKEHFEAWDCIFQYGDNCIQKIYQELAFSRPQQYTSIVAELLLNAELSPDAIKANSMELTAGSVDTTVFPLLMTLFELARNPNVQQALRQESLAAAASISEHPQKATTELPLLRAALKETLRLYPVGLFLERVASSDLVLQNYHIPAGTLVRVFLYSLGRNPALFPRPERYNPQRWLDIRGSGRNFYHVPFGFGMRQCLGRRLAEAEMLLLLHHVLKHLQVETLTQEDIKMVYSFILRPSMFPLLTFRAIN
Assay: Inhibition of recombinant CYP11 (unknown origin) expressed in human AD293 cells assessed as reduction in cortisol level preincubated for 60 mins followed by 11-deoxy cortisol substrate addition and measured after 12 hrs by LC-MS method
Type: cell-based

For `CS(=O)(=O)N1CCN(c2ccc(CO[C@H]3CO[C@@](Cn4ccnc4)(c4ccccc4Cl)OC3)cc2)CC1`, the IC50 was 10 µM.
